Experimental data: US20070248996A1, “Modulators of beta-amyloid peptide aggregation comprising D-amino acids” (Paraecis Pharmaceuticals, Inc., priority 1995, published 2007)
Where two headings read alike, the source gives them in different places. Square brackets hold non-standard residues; d marks the D form. Peptide text beside a SMILES is read from it. * marks the point of attachment. Quinoline4carbonyl = O=C(c1ccnc2ccccc12)*; Benzoyl(4-OH) = O=C(c1ccc(O)cc1)*

Biological target: Aβ1-40 (Homo sapiens, UniProt P05067)
Sequence (P05067 672-711): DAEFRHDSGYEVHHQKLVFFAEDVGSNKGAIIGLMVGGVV
Type: biochemical
Parameters: ΔLag: unit not given here
Settings: for ΔLag 5.0 μM / ΔLag 0.5 μM / ΔLag […]: Table VI; for ΔLag 5.0 μM: 5.0 μM test compound; for ΔLag […]: […] test compound; for ΔLag: Table XI
Text: The nucleation assay is employed to determine the ability of test compounds to alter (e.g. inhibit) the early events in formation of β-AP fibers from monomeric β-AP. Characteristic of a nucleated polymerization mechanism, a lag time is observed prior to nucleation, after which the peptide rapidly forms fibers as reflected in a linear rise in turbidity. The time delay before polymerization of β-AP monomer can be quantified as well as the extent of formation of insoluble fiber by light scattering (turbidity). Polymerization reaches equilibrium when the maximum turbidity reaches a plateau The turbidity of a solution of natural β-AP in the absence or presence of various concentrations of a β-amyloid modulator compound is determined by measuring the apparent absorbance of the solution at 405 nm (A405 nm) over time. The threshold of sensitivity for the measurement of turbidity is in the range of 15-20 μM β-AP. […] This assay can be performed using stirring or shaking to accelerate polymerization, thereby increasing the speed of the assay. Moreover the assay can be adapted to a 96-well plate format to screen multiple compounds.
HFIP-solubilized peptide is sonicated in a waterbath sonicator for 5 min at highest setting, then evaporated to dryness under a stream of argon. The peptide film is resuspended in anhydrous dimethylsulfoxide (DMSO) at a concentration of 6.9 mg/ml (25× concentration), sonicated for 5 min as before, then filtered through a 0.2 micron nylon syringe filter (VWR cat. No.28196-050). Test compounds are dissolved in DMSO at a 100× concentration. […] Ten microliters of the mixture is then added to the bottom of a well of a Corning Costar ultra low binding 96-well plate (Coming Costar, Cambridge Mass.; cat. No. 2500). Ninety microliters of water is added to the well, the plate is shaken on a rotary shaken at a constant speed at room temperature for 30 seconds, an additional 100 μl of 2× PTL buffer (20 mM NaH2PO4, 300 mM NaCl, pH 7.4) is added to the well, the plate is reshaken for 30 seconds and a baseline (t=0) turbidity reading is taken by measuring the apparent absorbance at 405 nm using a Bio-Rad Model 450 Microplate Reader. The plate is then returned to the shaker and shaken continuously for 5 hours. Turbidity readings are taken at 15 minute intervals.
β-amyloid aggregation in the absence of any modulators results in enhanced turbidity of the natural β-AP solution (i.e., an increase in the apparent absorbance at 405 nm over time). […]

[1] = Table III, modifying groups derived from bile acids, 5 μM test compound
[2] = Table IV, hydrophobic modifying groups, 5 μM test compound
[3] = Table V, hydroxylated and oxygenated modifying groups, 5 μM test compound
[4] = Table I, 5 μM Aβ1-40, 5 μM test compound, ratio of lag time to control

With Lithocholyl-LVFFA-oh [PPI-425] the “ΔLag 5 μM” value [1] was 1.4.

“4-(2-Hydroxyphenyl)propionyl-d(AFFVL)-nh2 [PPI-611]” was tested, and the “ΔLag 5 μM” value (Table IX, 5 μM test compound) was 3.2.

With Hydrocinnamoyl-d(FFFVL)-nh2 [PPI-636] the “ΔLag 5 μM” value (Table IX, 5 μM test compound) was 1.7.

In the case of Isobutanoyl-d(LVFFA)-nh2 [PPI-526], the “ΔLag 5 μM” value [2] is reported as 1.8.

In the case of “2,4-Dihydroxybenzoyl-d(LVFF)-nh2 [PPI-486]”, the “ΔLag 5 μM” value [3] is reported as 1.2.

Acetyl-d(LV(IodoY)FA)-nh2 [PPI-506] was tested, and the “ΔLag 5.0 μM” value was 1.0.

For h-d(FFFFL)-nh2 [PPI-589], the “ΔLag 0.5 μM” value (0.5 μM test compound) was 1.5, the “ΔLag 5.0 μM” value was greater than 7.5 and the “ΔLag […]” value was 3.3. The “ΔLag 5 μM” value (Table X, 5 μM test compound) was greater than 6.

With 4-Methylvaleryl-d(LVFFA)-nh2 [PPI-524] the “ΔLag 5 μM” value [2] was 1.6.

In the case of D-3-Phenyllactyl-d(FFVL)-nh2 [PPI-612], the “ΔLag 5 μM” value (Table IX, 5 μM test compound) is reported as 2.1.

`CC(C)C[C@@H](NC(=O)[C@H](NC(=O)[C@@H](Cc1ccccc1)NC(=O)[C@@H](Cc1ccccc1)NC(=O)[C@@H](C)NC(=O)CN)C(C)C)C(N)=O` [PPI-734, H-Glycyl-d(AFFVL)-nh2] gave a ΔLag (5 μM test compound) greater than 10.

`CC(C)C[C@@H](NC(=O)c1ccc(O)cc1)C(=O)N[C@@H](C(=O)N[C@H](Cc1ccc(O)cc1)C(=O)N[C@H](Cc1ccccc1)C(=O)N[C@H](C)C(N)=O)C(C)C` [PPI-774, 4-Hydroxybenzoyl-d(LVYFA)-nh2] ({Benzoyl(4-OH)}-[dL][dV][dY][dF][dA]-NH2) showed a ΔLag (5 μM test compound) of 1.

For “4-Hydroxycinnamoyl-d(LVFFA)-nh2 [PPI-537]”, the “ΔLag 5 μM” value (Table IX, 5 μM test compound) was 1.6 and the “ΔLag 5 μM” value [3] was 1.0.

For “3,5-Dihydroxy-2-naphthoyl-d(LVFFA)-nh2 [PPI-523]”, the “ΔLag 5 μM” value [3] was 3.8 and the “ΔLag 5 μM” value (Table VIII, 5 μM test compound) was 2.1.

For Ursodeoxycholyl-LVFFA-oh [PPI-522], the “ΔLag 5 μM” value [1] was greater than 2.3 and the “ΔLag 5 μM” value (Table IX, 5 μM test compound) was 1.2.

h-d(LFFVL)-nh2 [PPI-578] was tested, and the “ΔLag 0.5 μM” value (0.5 μM test compound) was 2.5, the “ΔLag 5.0 μM” value was greater than 7.5 and the “ΔLag […]” value was 4.8. For the same molecule, the “ΔLag 5 μM” value (Table X, 5 μM test compound) was 3.2.

With Acetyl-d(LVYFA)-nh2 [PPI-505] the “ΔLag 5.0 μM” value was 1.0.

h-d(LV(IodoY)FA)-nh2 [PPI-504] was tested, and the “ΔLag 5.0 μM” value was 2.2 and the “ΔLag 5 μM” value (Table X, 5 μM test compound) was 1.4.

In the case of “3-(4-Hydroxyphenyl)propionyl-d(FFVL)-nh2 [PPI-616]”, the “ΔLag 5 μM” value (Table IX, 5 μM test compound) is reported as 1.5.

In the case of “cholyl-D-Leu-D-Val-D-Phe-D-Phe-D-Ala-NH2 [PPI-457]”, the “ΔLag 5 μM” value [4] is reported as greater than 10 and the “ΔLag 5 μM” value (Table IX, 5 μM test compound) is reported as greater than 6.

With h-d(VF)-PEA [PPI-497] the “ΔLag 5 μM” value [2] was 1.0.

For Benzoylpropanoyl-d(LVFF)-nh2 [PPI-489], the “ΔLag 5 μM” value [3] was 1.2.

With h-d(AFFVL)-nh2 [PPI-500] the “ΔLag 0.5 μM” value (0.5 μM test compound) was 1.0, the “ΔLag 5.0 μM” value was greater than 6.0 and the “ΔLag […]” value was 1.8.

Molecule `CC(C)C[C@@H](NC(=O)[C@H](NC(=O)[C@@H](Cc1ccccc1)NC(=O)[C@@H](Cc1ccccc1)NC(=O)[C@@H](C)NC(=O)c1ccnc2ccccc12)C(C)C)C(N)=O` [PPI-746, 4-Quinolinecarboxyl-d(AFFVL)-nh2] (Quinoline4carbonyl-[dA][dF][dF][dV][dL]-NH2) has a ΔLag (5 μM test compound) of 2.

“3,4-Dihydroxycinnamoyl-d(AFFVL)-nh2 [PPI-569]” was tested, and the “ΔLag 5 μM” value (Table IX, 5 μM test compound) was 2.6.

h-d(AFFFL)-nh2 [PPI-598] was tested, and the “ΔLag 0.5 μM” value (0.5 μM test compound) was 1.3, the “ΔLag 5.0 μM” value was 6.3 and the “ΔLag […]” value was 2.0. The “ΔLag 5 μM” value (Table X, 5 μM test compound) was greater than 6.

With “(±)-Mandelyl-(±)-mandelyl-d(LVFFA)-nh2 [PPI-518]” the “ΔLag 5 μM” value [3] was 1.5.

For h-d(AAAAA)-nh2 [PPI-473], the “ΔLag 3 μM” value (Table II, second series, different stock of Aβ1-40, 3 μM test compound) was 1.0, the “ΔLag 4 μM” value (Table II, second series, different stock of Aβ1-40, 4 μM test compound) was 1.0 and the “ΔLag 5 μM” value (Table II, second series, different stock of Aβ1-40, 5 μM test compound) was 1.0.

`CC(C)C[C@@H](N)C(=O)N[C@@H](C(=O)N[C@H](Cc1ccccc1)C(=O)N[C@H](Cc1ccccc1)C(=O)N[C@H](Cc1ccccc1)C(N)=O)C(C)C` [PPI-656, H-d(LVFFF)-nh2] (H-[dL][dV][dF][dF][dF]-NH2) gave a ΔLag (0.5 μM test compound) of 2.3 and a ΔLag (5 μM test compound) greater than 2.5.

CA-d(AFFVL)-cooh [PPI-454] was tested, and the “ΔLag 2 μM” value (Table I, 5 μM Aβ1-40, 2 μM test compound, ratio of lag time with compound to lag time of control) was 4.0 and the “ΔLag 5 μM” value [4] was greater than 12.

With “(±)-Mandelyl-d(LVFF)-nh2 [PPI-482 (isomer 1)]” the “ΔLag 5 μM” value [3] was 1.5.
